{"source": "patent US9254280B2", "about": "“Medical food for cognitive decline” (The Regents of the University of California, priority 2011, dated 2016)", "key": {"[1]": {"system": "3×AD Tg mice", "assay": "Morris Water Maze, hidden platform, diet supplement study", "type": "in vivo", "excerpt": "(§1) Fisetin, a natural flavonoid enriched in strawberries, is neuroprotective and can improve cognitive function in various animal models including aging mice and beta amyloid plaque accumulating transgenic mice. We have tested 0.6% DHA alone, 500 ppm fisetin alone and DHA+fisetin in combination delivered as a food supplement (in chow) to older 3×AD Tg mice with combined amyloid and tau pathology. The study ran from ˜9 months to 13-14 months of age."}, "[2]": {"system": "3×AD Tg mice", "assay": "Probe test (platform removed, time in target quadrant)", "type": "in vivo", "details": "60 seconds swim, dietary supplement", "excerpt": "as §1\nFIG. 2. […] In this test the platform is removed, and the mice are allowed to swim for 60 seconds, while the time in the target quadrant is quantified."}}}
{"smiles": "O=c1c(O)c(-c2ccc(O)c(O)c2)oc2cc(O)ccc12", "note": "[fisetin, 2-(3,4-dihydroxyphenyl)-3,7-dihydroxy-4H-chromen-4-one]", "values": [{"measurement": "Cognitive deficits", "setting": "[1]; 0.6% DHA, 500 ppm fisetin, alone or combined, in chow, older 3×AD Tg mice, ~9 to 13-14 months of age", "value": "not by DHA alone or fisetin alone"}, {"measurement": "time (latency) to find a hidden platform with additional blocks of training", "setting": "[1]; 12-13 month old 3×AD Tg mice on control bad (high safflower oil) diet", "value": "no improvement"}, {"measurement": "retention in the probe test (time in the target quadrant)", "setting": "[2]", "value": "also improved retention"}]}
